Experimental data reported in the supplement of paper PMC4862054.

Assays:
Test in all cases: normalised viability (% of control), CellTiter-Blue; higher = more viable cells (about 100 = DMSO control)
Conditions in all cases: incubation time: 72 h
DU-4475 [1] = test system: DU-4475
Experimental: (§1)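 DSRT, CellTiter-Blue viability, 72 h incubation. Signal is normalised to DMSO and benzethonium chloride controls. Value is the normalised response at dose 8.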

CAL-51 [2] = test system: CAL-51
Experimental: as §1

HDQ-P1 [3] = test system: HDQ-P1
Experimental: as §1

CAL-148 [4] = test system: CAL-148
Experimental: as §1

CAL-85-1 [5] = test system: CAL-85-1
Experimental: as §1

MDA-MB-453 [6] = test system: MDA-MB-453
Experimental: as §1

DU-4475 [7] = test system: DU-4475; remark: listed apart in the source
Experimental: (§2)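 DSRT, CellTiter-Blue viability, 72 h incubation. Signal is normalised to DMSO and benzethonium chloride controls. Value is the normalised response at dose 6.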

CAL-51 [8] = test system: CAL-51; remark: listed apart in the source
Experimental: as §2

HDQ-P1 [9] = test system: HDQ-P1; remark: listed apart in the source
Experimental: as §2

CAL-148 [10] = test system: CAL-148; remark: listed apart in the source
Experimental: as §2

CAL-85-1 [11] = test system: CAL-85-1; remark: listed apart in the source
Experimental: as §2

MDA-MB-453 [12] = test system: MDA-MB-453; remark: listed apart in the source
Experimental: as §2

SMILES	normalised viability (DU-4475 [1]) [%]	normalised viability (CAL-51 [2]) [%]	normalised viability (HDQ-P1 [3]) [%]	normalised viability (CAL-148 [4]) [%]	normalised viability (CAL-85-1 [5]) [%]	normalised viability (MDA-MB-453 [6]) [%]	normalised viability (DU-4475 [7]) [%]	normalised viability (CAL-51 [8]) [%]	normalised viability (HDQ-P1 [9]) [%]	normalised viability (CAL-148 [10]) [%]	normalised viability (CAL-85-1 [11]) [%]	normalised viability (MDA-MB-453 [12]) [%]
CN1CC[C@H](c2c(O)cc(O)c3c(=O)cc(-c4ccccc4Cl)oc23)[C@H](O)C1 [Alvocidib] (3000 nM)	1.28	4.88	13.7	14.4	3.02	7.79	–	–	–	–	–	–
Nc1ccn([C@@H]2O[C@H](CO)[C@@H](O)[C@@H]2O)c(=O)n1 [Cytarabine] (300 nM)	–	–	–	–	–	–	72.6	51.2	75.1	42.2	89.2	87.5
OC[C@H]1O[C@@H](n2cnc3c2N=CNC[C@H]3O)C[C@@H]1O [Pentostatin] (300 nM)	–	–	–	–	–	–	93.1	94.3	82.3	111	97.8	108
C=CC[C@@H]1/C=C(\C)C[C@H](C)C[C@H](OC)[C@H]2O[C@@](O)(C(=O)C(=O)N3CCCC[C@H]3C(=O)O[C@H](/C(C)=C/[C@@H]3CC[C@@H](O)[C@H](OC)C3)[C@H](C)[C@@H](O)CC1=O)[C@H](C)C[C@@H]2OC [Tacrolimus] (3000 nM)	121	99.2	116	99.2	100	102	–	–	–	–	–	–
COc1cccc2cc(-c3nc([C@H]4CC[C@H](C(=O)O)CC4)n4ncnc(N)c34)[nH]c12 [OSI-027] (3000 nM)	69.1	42.9	31.1	46.4	32.9	19.9	–	–	–	–	–	–
CS(=O)(=O)c1ccc(C(=O)Nc2ccc(Cl)c(-c3ccccn3)c2)c(Cl)c1 [Vismodegib] (300 nM)	–	–	–	–	–	–	102	106	44	81.3	95.7	102
Cc1ccc(F)c(NC(=O)Nc2ccc(-c3cccc4[nH]nc(N)c34)cc2)c1 [Linifanib] (30 nM)	–	–	–	–	–	–	116	107	96.2	94.1	118	96.4
Nc1nc(Cl)nc2c1ncn2[C@H]1C[C@H](O)[C@@H](CO)O1 [Cladribine] (30 nM)	–	–	–	–	–	–	101	109	90.2	108	102	107
Cc1c2oc3c(C)ccc(C(=O)N[C@@H]4C(=O)N[C@H](C(C)C)C(=O)N5CCC[C@H]5C(=O)N(C)CC(=O)N(C)[C@@H](C(C)C)C(=O)O[C@@H]4C)c3nc-2c(C(=O)N[C@@H]2C(=O)N[C@H](C(C)C)C(=O)N3CCC[C@H]3C(=O)N(C)CC(=O)N(C)[C@@H](C(C)C)C(=O)O[C@@H]2C)c(N)c1=O [Dactinomycin] (30 nM)	–	–	–	–	–	–	0	4.91	16.6	1.36	4.36	7.48
C=CCNC1=C2C[C@@H](C)C[C@H](OC)[C@H](O)[C@@H](C)/C=C(\C)[C@H](OC(N)=O)[C@@H](OC)/C=C\C=C(/C)C(=O)NC(=CC1=O)C2=O [Tanespimycin] (3000 nM)	0.57	11.3	24.7	17.2	23	8.29	–	–	–	–	–	–
Clc1ccc(C(c2ccccc2Cl)C(Cl)Cl)cc1 (stereo unspecified) [Mitotane] (3000 nM)	96.2	111	91.7	103	94.6	113	–	–	–	–	–	–
CN1CC[C@H](c2c(O)cc(O)c3c(=O)cc(-c4ccccc4Cl)oc23)[C@H](O)C1 [Alvocidib] (300 nM)	–	–	–	–	–	–	1.07	31.6	24.5	17.5	17.3	32.7
COc1cc(Nc2ncc3c(n2)-c2ccc(Cl)cc2C(c2c(F)cccc2OC)=NC3)ccc1C(=O)O [MLN8237] (3000 nM)	18.3	26.2	58	28.8	69.2	60.1	–	–	–	–	–	–
Nc1ccn([C@@H]2O[C@H](CO)[C@@H](O)[C@@H]2O)c(=O)n1 [Cytarabine] (3000 nM)	26.1	16.4	86.7	34.8	70.1	62.5	–	–	–	–	–	–
CO[C@H]1C[C@@H]2CC[C@@H](C)[C@@](O)(O2)C(=O)C(=O)N2CCCC[C@H]2C(=O)O[C@H]([C@H](C)C[C@@H]2CC[C@@H](OC(=O)C(C)(CO)CO)[C@H](OC)C2)CC(=O)[C@H](C)/C=C(\C)[C@@H](O)[C@@H](OC)C(=O)[C@H](C)C[C@H](C)/C=C/C=C/C=C/1C [Temsirolimus] (30 nM)	–	–	–	–	–	–	54.4	41.8	58.3	40.4	56.3	30.1
OC[C@H]1O[C@@H](n2cnc3c2N=CNC[C@H]3O)C[C@@H]1O [Pentostatin] (3000 nM)	90.9	95.8	96.8	112	96.4	96.8	–	–	–	–	–	–
